Assay results: US10988478B1, “Pyrazolo[1,5a]pyrimidine derivatives as IRAK4 modulators” (Genentech, Inc., priority 2015, dated 2021)

The molecules below were run against human IRAK4 (Homo sapiens (Human), UniProt Q9NWZ3) (assay: IRAK4 kinase inhibition, Transcreener fluorescence polarization ADP assay). Conditions: recombinant full-length His6-IRAK4; 125 uM ATP; 90 min; Ki computed using ATP Km 642 uM.
Sequence of human IRAK4 (Q9NWZ3 whole entry): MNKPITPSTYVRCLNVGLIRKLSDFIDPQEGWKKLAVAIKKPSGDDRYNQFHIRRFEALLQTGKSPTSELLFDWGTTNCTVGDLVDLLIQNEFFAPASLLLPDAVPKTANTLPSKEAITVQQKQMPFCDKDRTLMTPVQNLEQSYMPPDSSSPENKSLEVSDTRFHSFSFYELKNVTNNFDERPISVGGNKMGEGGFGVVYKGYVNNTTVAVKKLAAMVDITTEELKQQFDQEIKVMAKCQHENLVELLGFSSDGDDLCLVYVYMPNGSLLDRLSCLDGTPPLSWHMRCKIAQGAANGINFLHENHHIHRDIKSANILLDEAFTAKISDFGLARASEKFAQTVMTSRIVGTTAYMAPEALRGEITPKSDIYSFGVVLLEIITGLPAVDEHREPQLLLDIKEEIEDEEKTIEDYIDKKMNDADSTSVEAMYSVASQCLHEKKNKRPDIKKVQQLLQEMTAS
Assay type: biochemical
Method: Compounds were assayed for inhibition of human IRAK4 and IRAK1 catalytic activity using recombinant enzyme produced from insect cells. Full-length IRAK4 protein, carrying an N-terminal His6-Tag, was obtained from Life Technologies (Carlsbad, Calif., USA). The IRAK1 construct was produced internally and was comprised of IRAK1 residues Arg194 to Ser712, preceded by an NH2-terminal His6 tag and the coding sequence for glutathione-S-transferase.
In the case of `CC1(C)Cc2cc(NC(=O)c3cnn4cccnc34)c(C3CC3)cc2O1` [Example 384, N-(6-Cyclopropyl-2,2-dimethyl-3H-benzofuran-5-yl)pyrazolo[1,5-a]pyrimidine-3-carboxamide], the Ki is reported as 0.037 µM.
`CN1Cc2cc(NC(=O)c3cnn4cccnc34)c(N3CCOCC3)cc2S1(=O)=O` [Example 385, N-(2-methyl-6-morpholino-1,1-dioxo-3H-1,2-benzothiazol-5-yl)pyrazolo[1,5-a]pyrimidine-3-carboxamide] was tested, and the Ki was 0.019 µM.
Molecule `CC1(CC#N)Cc2cc(NC(=O)c3cnn4cccnc34)c(N3CCOCC3)cc2O1` (stereo not shown) [Example 386, N-[2-(Cyanomethyl)-2-methyl-6-morpholino-3H-benzofuran-5-yl]pyrazolo[1,5-a]pyrimidine-3-carboxamide] has a Ki of 0.016 µM.
In the case of `C[C@]1(CCO)Cc2cc(NC(=O)c3cnn4cccnc34)c(N3CCOCC3)cc2O1` [Example 388, (R)—N-(2-(2-hydroxyethyl)-2-methyl-6-morpholino-2,3-dihydrobenzofuran-5-yl)pyrazolo[1,5-a]pyrimidine-3-carboxamide], the Ki is reported as 0.012 µM.
In the case of `CC1(C)Cc2cc(NC(=O)c3cnn4cccnc34)c(N3CCC(F)(CN)CC3)cc2O1` [Example 389, N-[6-[4-(Aminomethyl)-4-fluoro-1-piperidyl]-2,2-dimethyl-3H-benzofuran-5-yl]pyrazolo[1,5-a]pyrimidine-3-carboxamide], the Ki is reported as 0.0013 µM.
With `CN1CC[C@]2(Cc3cc(NC(=O)c4cnn5cccnc45)c(N4CCOCC4)cc3O2)C1` [Example 390, (R)—N-(1′-methyl-6-morpholino-3H-spiro[benzofuran-2,3′-pyrrolidin]-5-yl)pyrazolo[1,5-a]pyrimidine-3-carboxamide] the Ki was 0.016 µM.
For `CN1CC[C@@]2(Cc3cc(NC(=O)c4cnn5cccnc45)c(N4CCOCC4)cc3O2)C1` [Example 391, (S)—N-(1′-methyl-6-morpholino-3H-spiro[benzofuran-2,3′-pyrrolidin]-5-yl)pyrazolo[1,5-a]pyrimidine-3-carboxamide], the Ki was 0.031 µM.
`CC(C)(O)C(F)C1(C)Cc2cc(NC(=O)c3cnn4cccnc34)c(N3CCOCC3)cc2O1` (stereo not shown) [Example 392, N-[2-(1-fluoro-2-hydroxy-2-methyl-propyl)-2-methyl-6-morpholino-3H-benzofuran-5-yl]pyrazolo[1,5-a]pyrimidine-3-carboxamide] was tested, and the Ki was 0.018 µM.
For `O=C(Nc1cc2c(cc1N1CCOCC1)OC1(CCNC1)C2)c1cnn2cccnc12` (stereo not shown) [Example 393, N-(6-Morpholinospiro[3H-benzofuran-2,3′-pyrrolidine]-5-yl)pyrazolo[1,5-a]pyrimidine-3-carboxamide], the Ki was 0.024 µM.
For `O=C(Nc1cc2c(cc1N1CCOCC1)OC(CO)(CO)C2)c1cnn2cccnc12` [Example 394, N-(2,2-bis(hydroxymethyl)-6-morpholino-2,3-dihydrobenzofuran-5-yl)pyrazolo[1,5-a]pyrimidine-3-carboxamide], the Ki was 0.075 µM.
Work on `CNC(=O)C1CC1c1cc2c(cc1NC(=O)c1cnn3cccnc13)CC(C)(C)O2` (stereo not shown) [Example 395, N-(2,2-dimethyl-6-(2-(methylcarbamoyl)cyclopropyl)-2,3-dihydrobenzofuran-5-yl)pyrazolo[1,5-a]pyrimidine-3-carboxamide] yielded a Ki of 0.34 µM.
For `CC1(C)Cc2cc(NC(=O)c3cnn4cccnc34)c([C@@H]3C[C@H]3C(N)=O)cc2O1` [Example 396, N-(6-((1R,2R)-2-Carbamoylcyclopropyl)-2,2-dimethyl-2,3-dihydrobenzofuran-5-yl)pyrazolo[1,5-a]pyrimidine-3-carboxamide], the Ki was 0.11 µM.
`CC1(C)Cc2cc(NC(=O)c3cnn4cccnc34)c([C@@H]3C[C@H]3CO)cc2O1` [Example 397, N-(6-((1R,2R)-2-(Hydroxymethyl)cyclopropyl)-2,2-dimethyl-2,3-dihydrobenzofuran-5-yl)pyrazolo[1,5-a]pyrimidine-3-carboxamide] gave a Ki of 0.088 µM.
Work on `CNc1cnc2c(C(=O)Nc3cc4c(cc3N3CCOCC3)C(=O)N(C(C)C)C4)cnn2c1` [Example 398, N-(2-Isopropyl-6-morpholino-1-oxoisoindolin-5-yl)-6-(methylamino)pyrazolo[1,5-a]-pyrimidine-3-carboxamide] yielded a Ki of 0.007 µM.
`O=C(Nc1cc2c(cc1N1CCOCC1)C(=O)N([C@H]1CCOC[C@@H]1F)C2)c1cnn2cccnc12` [Example 399, N-[2-[(3R,4S)-3-Fluorotetrahydropyran-4-yl]-6-morpholino-1-oxo-isoindolin-5-yl]pyrazolo[1,5-a]pyrimidine-3-carboxamide] was tested, and the Ki was 0.005 µM.
In the case of `O=C(Nc1cc2c(cc1N1CCOCC1)C(=O)N([C@@H]1CCOC[C@H]1F)C2)c1cnn2cccnc12` [Example 400, N-[2-[(3S,4R)-3-fluorotetrahydropyran-4-yl]-6-morpholino-1-oxo-isoindolin-5-yl]pyrazolo[1,5-a]pyrimidine-3-carboxamide], the Ki is reported as 0.001 µM.
`CN1CCc2cc(NC(=O)c3cnn4cccnc34)c(N3CCOCC3)cc2C1=O` [Example 401, N-(2-Methyl-7-morpholino-1-oxo-1,2,3,4-tetrahydroisoquinolin-6-yl)pyrazolo[1,5-a]pyrimidine-3-carboxamide] gave a Ki of 0.097 µM.
For `O=C(Nc1cc2c(cc1N1CCOCC1)S(=O)(=O)CCN2)c1cnn2cccnc12` [Example 402, N-(7-Morpholino-1,1-dioxido-3,4-dihydro-2H-benzo[b][1,4]thiazin-6-yl)pyrazolo[1,5-a]pyrimidine-3-carboxamide], the Ki was 0.019 µM.
`CC1(C)CS(=O)(=O)c2cc(N3CCOCC3)c(NC(=O)c3cnn4cccnc34)cc2N1` [Example 403, N-(3,3-Dimethyl-7-morpholino-1,1-dioxido-3,4-dihydro-2H-benzo[b][1,4]thiazin-6-yl)pyrazolo[1,5-a]pyrimidine-3-carboxamide] showed a Ki of 0.68 µM.
`Cn1cc(-c2cc3c(cc2NC(=O)c2cnn4cccnc24)CC(C)(C)O3)cn1` [Example 404, N-(2,2-Dimethyl-6-(1-methyl-1H-pyrazol-4-yl)-2,3-dihydrobenzofuran-5-yl)pyrazolo[1,5-a]pyrimidine-3-carboxamide] was tested, and the Ki was 0.064 µM.
`CC1(C)Cc2cc(NC(=O)c3cnn4cccnc34)c(-c3cncc(C#N)c3)cc2O1` [Example 405, N-(6-(5-Cyanopyridin-3-yl)-2,2-dimethyl-2,3-dihydrobenzofuran-5-yl)pyrazolo[1,5-a]pyrimidine-3-carboxamide] showed a Ki of 0.52 µM.
For `Cn1ccnc1-c1cc2c(cc1NC(=O)c1cnn3cccnc13)CC(C)(C)O2` [Example 406, N-[2,2-Dimethyl-6-(1-methylimidazol-2-yl)-3H-benzofuran-5-yl]pyrazolo[1,5-a]pyrimidine-3-carboxamide], the Ki was 0.15 µM.
With `CC1(C)Cc2cc(NC(=O)c3cnn4cc(C#N)cnc34)c(N3CCOCC3)cc2O1` [Example 407, 6-Cyano-N-(2,2-dimethyl-6-morpholino-2,3-dihydrobenzofuran-5-yl)pyrazolo[1,5-a]pyrimidine-3-carboxamide] the Ki was 0.006 µM.
For `CC1(C)Cc2cc(NC(=O)c3cnn4cccnc34)c(N3CC[N+](C)(CC(N)=O)CC3)cc2O1` [Example 408, 1-(2-Amino-2-oxoethyl)-4-(2,2-dimethyl-5-(pyrazolo[1,5-a]pyrimidine-3-carboxamido)-2,3-dihydrobenzofuran-6-yl)-1-methylpiperazin-1-ium], the Ki was 0.046 µM.
Work on `C[C@]1(CO)Cc2cc(NC(=O)c3cnn4cccnc34)c(N3CCC([C@@](C)(O)C(F)(F)F)CC3)cc2O1` [Example 409, N—((R)-2-(hydroxymethyl)-2-methyl-6-(4-((R)-1,1,1-trifluoro-2-hydroxypropan-2-yl)piperidin-1-yl)-2,3-dihydrobenzofuran-5-yl)pyrazolo[1,5-a]pyrimidine-3-carboxamide] yielded a Ki of 0.0067 µM.
`C[C@]1(CO)Cc2cc(NC(=O)c3cnn4cccnc34)c(N3CCC([C@](C)(O)C(F)(F)F)CC3)cc2O1` [Example 410, N—((R)-2-(hydroxymethyl)-2-methyl-6-(4-((S)-1,1,1-trifluoro-2-hydroxypropan-2-yl)piperidin-1-yl)-2,3-dihydrobenzofuran-5-yl)pyrazolo[1,5-a]pyrimidine-3-carboxamide] showed a Ki of 0.0062 µM.
`C[C@@]1(CO)Cc2cc(NC(=O)c3cnn4cccnc34)c(N3CCC([C@@](C)(O)C(F)(F)F)CC3)cc2O1` [Example 411, N—((S)-2-(hydroxymethyl)-2-methyl-6-(4-((R)-1,1,1-trifluoro-2-hydroxypropan-2-yl)piperidin-1-yl)-2,3-dihydrobenzofuran-5-yl)pyrazolo[1,5-a]pyrimidine-3-carboxamide] gave a Ki of 0.0076 µM.
Molecule `C[C@@]1(CO)Cc2cc(NC(=O)c3cnn4cccnc34)c(N3CCC([C@](C)(O)C(F)(F)F)CC3)cc2O1` [Example 412, N—((S)-2-(hydroxymethyl)-2-methyl-6-(4-((S)-1,1,1-trifluoro-2-hydroxypropan-2-yl)piperidin-1-yl)-2,3-dihydrobenzofuran-5-yl)pyrazolo[1,5-a]pyrimidine-3-carboxamide] has a Ki of 0.0059 µM.
Work on `C[C@]1(CO)Cc2cc(NC(=O)c3cnn4cccnc34)c(N3C[C@@H]4[C@H](C3)[C@H]4C(N)=O)cc2O1` [Example 413, N-((R)-6-((1R,5S,6R)-6-carbamoyl-3-azabicyclo[3.1.0]hexan-3-yl)-2-(hydroxymethyl)-2-methyl-2,3-dihydrobenzofuran-5-yl)pyrazolo[1,5-a]pyrimidine-3-carboxamide] yielded a Ki of 0.032 µM.
Work on `C[C@@]1(CO)Cc2cc(NC(=O)c3cnn4cccnc34)c(N3C[C@@H]4[C@H](C3)[C@H]4C(N)=O)cc2O1` [Example 414, N-((S)-6-((1R,5S,6S)-6-carbamoyl-3-azabicyclo[3.1.0]hexan-3-yl)-2-(hydroxymethyl)-2-methyl-2,3-dihydrobenzofuran-5-yl)pyrazolo[1,5-a]pyrimidine-3-carboxamide] yielded a Ki of 0.012 µM.
Molecule `C[C@@]1(CO)Cc2cc(NC(=O)c3cnn4cccnc34)c(N3CCC4(CC3)CNC(=O)C4)cc2O1` [Example 418, (S)-N-(2-(hydroxymethyl)-2-methyl-6-(3-oxo-2,8-diazaspiro[4.5]decan-8-yl)-2,3-dihydrobenzofuran-5-yl)pyrazolo[1,5-a]pyrimidine-3-carboxamide] has a Ki of 0.0048 µM.
